This is an account of results in article PMC7587356, “High-Throughput Screening for Inhibitors of the SARS-CoV-2 Protease Using a FRET-Biosensor” (Molecules, 2020).

Structures can show the parent of a compound that is named as a salt. Where two headings read alike, the source gives them in different places.

For the experiment, the target named is SARS-CoV-2 3CLpro (Severe acute respiratory syndrome coronavirus 2, UniProt P0DTD1). Description: biochemical. In kind it is biochemical. Also on record: Replicate_1 / Replicate_2 / mean / mean (LOPAC_screen_w_protease): unit not given here. As to conditions: for inhibition at 5 µM: 4 h.
The mark [1] stands for this setting: sheet LOPAC_screen_w_protease, LOPAC1280 primary screen at 5 µM, with protease, mean of the two replicates.
The mark [2] stands for this setting: sheet LOPAC_screen_w_protease, LOPAC1280 primary screen at 5 µM, with protease, replicate 1.
Setting [3] is: sheet LOPAC_screen_w_protease, LOPAC1280 primary screen at 5 µM, with protease, replicate 2.
[4] abbreviates: sheet LOPAC_screen_w_protease, LOPAC1280 at 5 µM, mean of two replicates.
Setting [5] is: sheet LOPAC_screen_w_protease, LOPAC1280 at 5 µM, replicate 1.
The mark [6] stands for this setting: sheet LOPAC_screen_w_protease, LOPAC1280 at 5 µM, replicate 2.
The mark [7] stands for this setting: sheet LOPAC_screen_w_protease, LOPAC1280 primary screen with protease, 5 µM compound, mean of the two replicates, read-out: mean.
Where [8] appears, read: sheet LOPAC_screen_w_protease, LOPAC1280 primary screen with protease, 5 µM compound, replicate 1, read-out: Replicate_1.
[9] abbreviates: sheet LOPAC_screen_w_protease, LOPAC1280 primary screen with protease, 5 µM compound, replicate 2, read-out: Replicate_2.

Take `Cc1cc(O)c2c(c1)C(=O)c1cc(O)cc(O)c1C2=O` [Emodin]: the inhibition at 5 µM is 10.9% (read-out: Replicate_1 (LOPAC screen with protease)), 5.72% (read-out: Replicate_2 (LOPAC screen with protease)) and 8.32% (read-out: mean (LOPAC screen with protease)).

`CN1CCN(c2nc3cc(C(F)(F)F)ccc3n3cccc23)CC1.O=C(O)/C=C\C(=O)O` [CGS-12066A maleate] had a mean under setting [1] of 0.5818. Moreover, under setting [2], the Replicate_1 is listed as 1.428. Moreover, the Replicate_2 under setting [3] was -0.2648.

`CN(C)C(N)=NCCC[C@H](N)C(=O)O.Cl` [N^G,N^G-Dimethylarginine hydrochloride] returned a mean under setting [4] of 0.9307. In addition, the Replicate_1 under setting [5] was found to be 2.142. In addition, the Replicate_2 under setting [6] is reported as -0.2808.

As to `c1ccc2c(CC3=NCCN3)cccc2c1` [Naphazoline hydrochloride], the inhibition at 5 µM is, setting by setting: under setting [7], 4.49%; under setting [8], 4.4%; under setting [9], 4.59%.

With `CCCCCCCCCCCCCC(=O)O[C@@H]1[C@@H](C)[C@@]2(O)[C@@H](C=C(CO)C[C@]3(O)C(=O)C(C)=C[C@@H]23)[C@@H]2C(C)(C)[C@]12OC(C)=O` [Phorbol 12-myristate 13-acetate], the inhibition at 5 µM by setting is: (read-out: Replicate_1) 1.97%; (read-out: Replicate_2) -0.596%; (read-out: mean) 0.686%.

In the case of `CNC[C@H](O)c1ccc(O)c(O)c1` [(-)-Epinephrine bitartrate], the inhibition at 5 µM came out at 5.37% (read-out: Replicate_1), 0.847% (read-out: Replicate_2) and 3.11% (read-out: mean).

For `O=C1N(c2ccccc2)c2ccccc2C1(Cc1ccncc1)Cc1ccncc1` [Linopirdine], the inhibition at 5 µM was determined as 4.8% under setting [7], 4.31% under setting [8] and 5.29% under setting [9].

`CCN(CCCl)Cc1ccccc1Br.Cl` [DSP-4 hydrochloride] yielded a mean (sheet LOPAC_screen_w_protease, LOPAC1280 primary screen with protease, 5 µM compound, mean of the two replicates) of 6.32. For the setting “sheet LOPAC_screen_w_protease, LOPAC1280 primary screen with protease, 5 µM compound, replicate 1”, this compound registered a Replicate_1 of 6.498. Where the note is “sheet LOPAC_screen_w_protease, LOPAC1280 primary screen with protease, 5 µM compound, replicate 2”, the Replicate_2 was found to be 6.142.

In turn, `Cn1cc(C(=O)OCC2CCN(CCNS(C)(=O)=O)CC2)c2ccccc21` [GR 113808] showed a mean under setting [4] of 1.128. Besides, the Replicate_1 under setting [5] came out at 1.417. Under setting [6], this compound registered a Replicate_2 of 0.838.

`C[C@H]1C[C@H]2[C@@H]3CCC4=CC(=O)C=C[C@]4(C)[C@@]3(Cl)[C@@H](O)C[C@]2(C)[C@@]1(O)C(=O)CO` [Beclomethasone]: the mean (sheet LOPAC_screen_w_protease, primary screen with protease, 5 µM, mean of two replicates) is reported as -0.1197. Also, the Replicate_1 (sheet LOPAC_screen_w_protease, primary screen with protease, 5 µM, replicate 1) is recorded as -0.1957. Also, the Replicate_2 (sheet LOPAC_screen_w_protease, primary screen with protease, 5 µM, replicate 2) is reported as -0.04382.

Take `OCCN1CCN(CC/C=C2/c3ccccc3Sc3ccc(C(F)(F)F)cc32)CC1` [cis-(Z)-Flupenthixol dihydrochloride]: the inhibition at 5 µM by setting is: (sheet LOPAC_screen_w_protease, primary screen with protease, mean of two replicates, read-out: mean) 2.17%; (sheet LOPAC_screen_w_protease, primary screen with protease, replicate 1, read-out: Replicate_1) 2.7%; (sheet LOPAC_screen_w_protease, primary screen with protease, replicate 2, read-out: Replicate_2) 1.63%.

On to `CC(C)[N+](C)(CCOC(=O)C1c2ccccc2Oc2ccccc21)C(C)C` [Propantheline bromide], for which the inhibition at 5 µM runs as follows: (sheet LOPAC_screen_w_protease, primary screen with protease, 5 µM, mean of two replicates, read-out: mean) 0.204%; (sheet LOPAC_screen_w_protease, primary screen with protease, 5 µM, replicate 1, read-out: Replicate_1) 0.838%; (sheet LOPAC_screen_w_protease, primary screen with protease, 5 µM, replicate 2, read-out: Replicate_2) -0.43%.

For the setting “sheet LOPAC_screen_w_protease, primary screen with protease, compound at 5 µM, mean of two replicates”, `N#CC(=C(/N)Sc1ccccc1N)/C(C#N)=C(/N)Sc1ccccc1N` [U0126] registered a mean of 2.655. The Replicate_1 (sheet LOPAC_screen_w_protease, primary screen with protease, compound at 5 µM, replicate 1) was 2.394. Further, the Replicate_2 (sheet LOPAC_screen_w_protease, primary screen with protease, compound at 5 µM, replicate 2) is recorded as 2.916.

For `Cn1cnc([N+](=O)[O-])c1Sc1ncnc2nc[nH]c12` [Azathioprine], the “mean (LOPAC_screen_w_protease)” value is recorded as 1.638. Moreover, the inhibition at 5 µM (read-out: Replicate_1 (LOPAC_screen_w_protease)) turned out to be 1.71%. Moreover, the inhibition at 5 µM (read-out: Replicate_2 (LOPAC_screen_w_protease)) worked out at 1.57%.

Take `CC1(C)NC(=O)N(c2ccc([N+](=O)[O-])c(C(F)(F)F)c2)C1=O` [Nilutamide]: the inhibition at 5 µM (sheet LOPAC_screen_w_protease, LOPAC1280 primary screen at 5 µM, with protease, mean of the two replicates, read-out: mean) came to 0.761%; the inhibition at 5 µM (sheet LOPAC_screen_w_protease, LOPAC1280 primary screen at 5 µM, with protease, replicate 1, read-out: Replicate_1) worked out at 2.22%; the inhibition at 5 µM (sheet LOPAC_screen_w_protease, LOPAC1280 primary screen at 5 µM, with protease, replicate 2, read-out: Replicate_2) is -0.697%.

Consider trans-(±)-ACPD, for which, under “LOPAC1280 primary screen with protease, 5 µM compound, replicate 1”, the “Replicate_1 (LOPAC_screen_w_protease)” value is 2.281. Besides, where the note is “LOPAC1280 primary screen with protease, 5 µM compound, replicate 2”, the “Replicate_2 (LOPAC_screen_w_protease)” value is 1.598.

As for `O=S(=O)(c1cccc2cnccc12)N1CCNCC1` [HA-100], the mean under setting [1] is on record as 0.7375. The compound also had a Replicate_1 under setting [2] of 1.4906. Moreover, the Replicate_2 under setting [3] is -0.01568.
